This test concerns c-Myc. Briefly: c-Myc immunofluorescence assay. As to conditions: A549 cells, 24 hours, anti-c-Myc immunofluorescence. The format is cell-based, human. The gist of the method: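 Read-out is imaged c-Myc immunofluorescence, nucleus-segmented, in A549 lung carcinoma cells exposed to compound dose series for 24 h after 48 h growth. Fixation 4% paraformaldehyde, Triton permeabilization, antibody staining at room temperature; EC50 from logistic fit of signal versus concentration.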
As for `C#CCCC1(CCNC(=O)N2CCN(c3nc(-c4ccc(OC)cc4)no3)CC2)N=N1` [Compound 246, N-(2-(3-(but-3-yn-1-yl)-3H-diazirin-3-yl)ethyl)-4-(3-(4-methoxyphenyl)-1,2,4-oxadiazol-5-yl)piperazine-1-carboxamide], the “Myc Efficacy (−LogEC50)” value was “+ (+ >3 and <5)”.

In the case of `COc1cnc(-c2noc(N3CCC(C(=O)NCC4CCN(Cc5ccc(C)cc5)C4)CC3)n2)nc1` (stereo not shown) [Compound 247, 1-(3-(5-methoxypyrimidin-2-yl)-1,2,4-oxadiazol-5-yl)-N-((1-(4-methylbenzyl)pyrrolidin-3-yl)methyl)piperidine-4-carboxamide], the “Myc Efficacy (−LogEC50)” value was “+ (+ >3 and <5)”.

Consider `COc1ccc(-c2noc(N3CCN(C(=O)NCCCN4CCC(Cc5ccccn5)CC4)CC3)n2)cc1` [Compound 248, 4-(3-(4-methoxyphenyl)-1,2,4-oxadiazol-5-yl)-N-(3-(4-(pyridin-2-ylmethyl)piperidin-1-yl)propyl)piperazine-1-carboxamide], for which the “Myc Efficacy (−LogEC50)” value is reported as “+++ (+++ ≥6)”.

As for `COc1ccc(-c2noc(N3CCC(C(=O)NCC4(N(C)C)CCCCC4)CC3)n2)cc1` [Compound 249, N-((1-(dimethylamino)cyclohexyl)methyl)-1-(3-(4-methoxyphenyl)-1,2,4-oxadiazol-5-yl)piperidine-4-carboxamide], the “Myc Efficacy (−LogEC50)” value is “+ (+ >3 and <5)”.

As to `COc1ccc(-c2noc(N3CCC(C(=O)NCC4CCN(C(C)(C)C)C4)CC3)n2)cc1` (stereo not shown) [Compound 250, N-((1-(tert-butyl)pyrrolidin-3-yl)methyl)-1-(3-(4-methoxyphenyl)-1,2,4-oxadiazol-5-yl)piperidine-4-carboxamide], the “Myc Efficacy (−LogEC50)” value was “+ (+ >3 and <5)”.

For the compound `CCCN1CCC(NC(=O)C2CCN(c3nc(-c4ccc(OC)cc4)no3)CC2)CC1` [Compound 251, 1-(3-(4-methoxyphenyl)-1,2,4-oxadiazol-5-yl)-N-(1-propylpiperidin-4-yl)piperidine-4-carboxamide], the “Myc Efficacy (−LogEC50)” value was “− (− ≤3)”.

For the compound `COc1ccc(-c2noc(N3CCC(C(=O)NC[C@H]4CCCN4C)CC3)n2)cc1` [Compound 252, (R)-1-(3-(4-methoxyphenyl)-1,2,4-oxadiazol-5-yl)-N-((1-methylpyrrolidin-2-yl)methyl)piperidine-4-carboxamide], the “Myc Efficacy (−LogEC50)” value is “+ (+ >3 and <5)”.

In the case of `COc1ccc(-c2noc(N3CCC(C(=O)NC[C@H]4CCN(C)C4)CC3)n2)cc1` [Compound 253, (R)-1-(3-(4-methoxyphenyl)-1,2,4-oxadiazol-5-yl)-N-((1-methylpyrrolidin-3-yl)methyl)piperidine-4-carboxamide], the “Myc Efficacy (−LogEC50)” value is “+ (+ >3 and <5)”.

`COc1ccc(-c2noc(N3CCC(C(=O)NC4CCOCC4)CC3)n2)cc1` [Compound 254, 1-(3-(4-methoxyphenyl)-1,2,4-oxadiazol-5-yl)-N-(tetrahydro-2H-pyran-4-yl)piperidine-4-carboxamide]: the “Myc Efficacy (−LogEC50)” value was “+ (+ >3 and <5)”.

Turning to `COc1ccc(-c2noc(N3CCC(C(=O)NCC4CCOC4)CC3)n2)cc1` (stereo not shown) [Compound 255, 1-(3-(4-methoxyphenyl)-1,2,4-oxadiazol-5-yl)-N-((tetrahydrofuran-3-yl)methyl)piperidine-4-carboxamide], the “Myc Efficacy (−LogEC50)” value was “+ (+ >3 and <5)”.

Take `COc1ccc(-c2noc(N3CCC(C(=O)N[C@H]4C[C@@H](OC)C4)CC3)n2)cc1` [Compound 256, N-((1s,3s)-3-methoxycyclobutyl)-1-(3-(4-methoxyphenyl)-1,2,4-oxadiazol-5-yl)piperidine-4-carboxamide]: the “Myc Efficacy (−LogEC50)” value is “+ (+ >3 and <5)”.

For `COc1ccc(-c2noc(N3CCC(C(=O)NCc4ccccc4N4CCCC4)CC3)n2)cc1` [Compound 257, 1-(3-(4-methoxyphenyl)-1,2,4-oxadiazol-5-yl)-N-(2-(pyrrolidin-1-yl)benzyl)piperidine-4-carboxamide], the “Myc Efficacy (−LogEC50)” value was “+ (+ >3 and <5)”.

As to `COc1ccc(-c2noc(N3CCC(C(=O)NC4(C(O)c5ccccc5)CC4)CC3)n2)cc1` (stereo not shown) [Compound 258, N-(1-(hydroxy(phenyl)methyl)cyclopropyl)-1-(3-(4-methoxyphenyl)-1,2,4-oxadiazol-5-yl)piperidine-4-carboxamide], the “Myc Efficacy (−LogEC50)” value was “+ (+ >3 and <5)”.

Consider `COc1ccc(-c2noc(N3CCC(C(=O)N[C@H]4c5ccccc5C[C@H]4O)CC3)n2)cc1` [Compound 259, N-((1S,2R)-2-hydroxy-2,3-dihydro-1H-inden-1-yl)-1-(3-(4-methoxyphenyl)-1,2,4-oxadiazol-5-yl)piperidine-4-carboxamide], for which the “Myc Efficacy (−LogEC50)” value is “+ (+ >3 and <5)”.

As to `COc1ccc(-c2noc(N3CCC(C(=O)NCC(C)(O)c4ccccc4)CC3)n2)cc1` (stereo not shown) [Compound 260, N-(2-hydroxy-2-phenylpropyl)-1-(3-(4-methoxyphenyl)-1,2,4-oxadiazol-5-yl)piperidine-4-carboxamide], the “Myc Efficacy (−LogEC50)” value is “+ (+ >3 and <5)”.

Turning to `COc1ccc(-c2noc(N3CCC(C(=O)NC4=NCCS4)CC3)n2)cc1` [Compound 261, N-(4,5-dihydrothiazol-2-yl)-1-(3-(4-methoxyphenyl)-1,2,4-oxadiazol-5-yl)piperidine-4-carboxamide], the “Myc Efficacy (−LogEC50)” value is “+ (+ >3 and <5)”.

On to `COc1ccc(-c2noc(N3CCC(C(=O)NC(CO)c4cccs4)CC3)n2)cc1` (stereo not shown) [Compound 262, N-(2-hydroxy-1-(thiophen-2-yl)ethyl)-1-(3-(4-methoxyphenyl)-1,2,4-oxadiazol-5-yl)piperidine-4-carboxamide], for which the “Myc Efficacy (−LogEC50)” value is “+ (+ >3 and <5)”.

Consider `COc1ccc(-c2noc(N3CCC(C(=O)NC(C)Cc4ccccn4)CC3)n2)cc1` (stereo not shown) [Compound 263, 1-(3-(4-methoxyphenyl)-1,2,4-oxadiazol-5-yl)-N-(1-(pyridin-2-yl)propan-2-yl)piperidine-4-carboxamide], for which the “Myc Efficacy (−LogEC50)” value is listed as “− (− ≤3)”.

Consider `COc1ccc(-c2noc(N3CCC(C(=O)NC4(c5ccccc5)CC4)CC3)n2)cc1` [Compound 264, 1-(3-(4-methoxyphenyl)-1,2,4-oxadiazol-5-yl)-N-(1-phenylcyclopropyl)piperidine-4-carboxamide], for which the “Myc Efficacy (−LogEC50)” value is “+ (+ >3 and <5)”.

With `COc1ccc(-c2noc(N3CCC(C(=O)N[C@@H](CO)c4ccccc4)CC3)n2)cc1` [Compound 265, (R)-N-(2-hydroxy-1-phenylethyl)-1-(3-(4-methoxyphenyl)-1,2,4-oxadiazol-5-yl)piperidine-4-carboxamide], the “Myc Efficacy (−LogEC50)” value is “+ (+ >3 and <5)”.

For `COc1ccc(-c2noc(N3CCC(C(=O)N[C@@H](C)c4ccccc4F)CC3)n2)cc1` [Compound 266, (S)-N-(1-(2-fluorophenyl)ethyl)-1-(3-(4-methoxyphenyl)-1,2,4-oxadiazol-5-yl)piperidine-4-carboxamide], the “Myc Efficacy (−LogEC50)” value is “+ (+ >3 and <5)”.

`Cc1ccc(CN2CC(CNC(=O)C3CCN(c4nc(-c5ccc(C#N)cc5)no4)CC3)CC2=O)cc1` (stereo not shown) [Compound 267, 1-(3-(4-cyanophenyl)-1,2,4-oxadiazol-5-yl)-N-((1-(4-methylbenzyl)-5-oxopyrrolidin-3-yl)methyl)piperidine-4-carboxamide]: the “Myc Efficacy (−LogEC50)” value was “++ (++ ≥5 and <6)”.

`Cc1ccc(CN2CC(CNC(=O)N3CCN(c4nc(-c5ccc(C#N)cc5)no4)CC3)CC2=O)cc1` (stereo not shown) [Compound 268, 4-(3-(4-cyanophenyl)-1,2,4-oxadiazol-5-yl)-N-((1-(4-methylbenzyl)-5-oxopyrrolidin-3-yl)methyl)piperazine-1-carboxamide]: the “Myc Efficacy (−LogEC50)” value is “++ (++ ≥5 and <6)”.

In the case of `COc1ccc(-c2noc(N3CCC(C(=O)NCCN4CCCC4(C)C)CC3)n2)cc1` [Compound 269, N-(2-(2,2-dimethylpyrrolidin-1-yl)ethyl)-1-(3-(4-methoxyphenyl)-1,2,4-oxadiazol-5-yl)piperidine-4-carboxamide], the “Myc Efficacy (−LogEC50)” value was “+ (+ >3 and <5)”.

As for `COc1ccc(-c2noc(N3CCC(C(=O)NCC4(O)CCCCC4)CC3)n2)cc1` [Compound 270, N-((1-hydroxycyclohexyl)methyl)-1-(3-(4-methoxyphenyl)-1,2,4-oxadiazol-5-yl)piperidine-4-carboxamide], the “Myc Efficacy (−LogEC50)” value is “+ (+ >3 and <5)”.

`COc1ccc(-c2noc(N3CCC(C(=O)NC4CC5(C4)CN(C)C5)CC3)n2)cc1` [Compound 271, 1-(3-(4-methoxyphenyl)-1,2,4-oxadiazol-5-yl)-N-(2-methyl-2-azaspiro[3.3]heptan-6-yl)piperidine-4-carboxamide]: the “Myc Efficacy (−LogEC50)” value was “+ (+ >3 and <5)”.

As for `COc1ccc(-c2noc(N3CCC(C(=O)NC[C@H]4CC(C)(C)O4)CC3)n2)cc1` [Compound 272, (R)-N-((4,4-dimethyloxetan-2-yl)methyl)-1-(3-(4-methoxyphenyl)-1,2,4-oxadiazol-5-yl)piperidine-4-carboxamide], the “Myc Efficacy (−LogEC50)” value is “+ (+ >3 and <5)”.

`COc1ccc(-c2noc(N3CCC(C(=O)NCC4(c5ccccc5)CCOCC4)CC3)n2)cc1` [Compound 273, 1-(3-(4-methoxyphenyl)-1,2,4-oxadiazol-5-yl)-N-((4-phenyltetrahydro-2H-pyran-4-yl)methyl)piperidine-4-carboxamide]: the “Myc Efficacy (−LogEC50)” value is given as “− (− ≤3)”.

Consider `COc1ccc(-c2noc(N3CCC(C(=O)N[C@@H]4CC[C@H](O)C4)CC3)n2)cc1` [Compound 274, N-((1R,3S)-3-hydroxycyclopentyl)-1-(3-(4-methoxyphenyl)-1,2,4-oxadiazol-5-yl)piperidine-4-carboxamide], for which the “Myc Efficacy (−LogEC50)” value was “+ (+ >3 and <5)”.

With `COc1ccc(-c2noc(N3CCC(C(=O)NC4CCC(F)(F)C4)CC3)n2)cc1` (stereo not shown) [Compound 275, N-(3,3-difluorocyclopentyl)-1-(3-(4-methoxyphenyl)-1,2,4-oxadiazol-5-yl)piperidine-4-carboxamide], the “Myc Efficacy (−LogEC50)” value was “+ (+ >3 and <5)”.

As to `COc1ccc(-c2noc(N3CCC(C(=O)NC[C@H](C)OC)CC3)n2)cc1` [Compound 276, (S)-1-(3-(4-methoxyphenyl)-1,2,4-oxadiazol-5-yl)-N-(2-methoxypropyl)piperidine-4-carboxamide], the “Myc Efficacy (−LogEC50)” value was “+ (+ >3 and <5)”.
